This note sets out measurements from ChEMBL document CHEMBL4825698, “Identification of novel benzothiopyranones with ester and amide motifs derived from active metabolite as promising leads against Mycobacterium tuberculosis” (Eur J Med Chem, 2021).

In brackets after ≈: the same amount, converted by molar mass. Where only a bound is given, the exact number is not on record here.

Test [1] relates to Mycobacterium tuberculosis. Kind of test: Antitubercular activity against isoniazid,streptomycin,rifampicin,ethambutol, rifabutin, para-aminosalicylat, ofloxacin-resistant Mycobacterium tuberculosis clinical isolate 13946 assessed as inhibition of bacterial growth incubated for 7 days by MABA assay. The test is classed as functional. Conditions: clinical isolate 13946, 168 h, time 7 day. On the technique in general: Resazurin is reduced to fluorescent resorufin, in cell work by metabolically active cells.

Test [2] relates to Mycobacterium tuberculosis. As to the kind of experiment: Antitubercular activity against isoniazid,streptomycin,rifampicin,ethambutol,para-aminosalicylate,prothionamide,capreomycin-resistant Mycobacterium tuberculosis clinical isolate 14862 assessed as bacterial growth inhibition incubated for 7 days by MABA assay. The test is classed as functional. Conditions: clinical isolate 14862, 168 h, time 7 day.

As to `CC(=O)OC1CCC(CN2CCN(c3cc(=O)c4cc(C(F)(F)F)cc([N+](=O)[O-])c4s3)CC2)CC1` (centres undefined), the MIC in test [1] and in test [2] was 0.062 µg/mL (≈ 0.121 µM) in each case.
Regarding `NNC(=O)c1ccncc1` [ISONIAZID], the MIC in test [1] and in test [2] was above 10 µg/mL throughout.
On to `CO[C@H]1/C=C/O[C@@]2(C)Oc3c(C)c(O)c4c(O)c(c(/C=N/N5CCN(C)CC5)c(O)c4c3C2=O)NC(=O)/C(C)=C\C=C\[C@H](C)[C@H](O)[C@@H](C)[C@@H](O)[C@@H](C)[C@H](OC(C)=O)[C@@H]1C` [RIFAMPIN], for which the MIC in test [1] and in test [2] was above 10 µg/mL throughout.
For the molecule `O=c1cc(N2CCN(CC3CCC(OS(=O)(=O)c4ccccc4)CC3)CC2)sc2c([N+](=O)[O-])cc(C(F)(F)F)cc12` (centres undefined), the MIC in test [1] came to 0.001 µg/mL (≈ 0.00163 µM); in test [2], 0.002 µg/mL (≈ 0.00327 µM).
For `O=C(OC1CCC(CN2CCN(c3cc(=O)c4cc(C(F)(F)F)cc([N+](=O)[O-])c4s3)CC2)CC1)c1ccccc1` (centres undefined), in that order: 0.216 µg/mL (≈ 0.375 µM) and 0.162 µg/mL (≈ 0.281 µM).
With `O=c1cc(N2CCN(CC3CCC(OS(=O)(=O)c4cccnc4)CC3)CC2)sc2c([N+](=O)[O-])cc(C(F)(F)F)cc12` (centres undefined), the MIC in test [1] and in test [2] was below 0.001 µg/mL each time.
On to `CS(=O)(=O)OC1CCC(CN2CCN(c3cc(=O)c4cc(C(F)(F)F)cc([N+](=O)[O-])c4s3)CC2)CC1` (centres undefined), for which the results for the MIC in test [1] and in test [2] were below 0.001 µg/mL and 0.001 µg/mL (≈ 0.00182 µM), respectively.

The term MIC denotes the least concentration at which growth counts as inhibited.
